Assay results from PMC10485820 (European Journal of Pharmaceutical Sciences, 2023).
Read-outs that look alike come from different tables or passages of the source.

Experiments:
[1] = tested on: primary human plated hepatocytes; assay: Metabolic stability in human plated hepatocytes; settings: incubation up to 48 h, HSK7653 at 0.05 μM
Procedure: Reactions were stopped by removing the plates from the incubator and mixing the incubation solution with 600 μL of ice-cold stop solution (acetonitrile) at the corresponding sampling time points.

[2] = Apparent permeability in Caco-2 monolayer cell lines; assay type: in vitro ADME; settings: human, Caco-2, positive controls
Procedure: All experiments were performed in triplicate and analyzed by high-performance liquid chromatography with tandem mass spectrometry (HPLC-MS/MS). The apparent permeability coefficient (Papp) of each compound under the corresponding concentration was calculated according to Eq. (1) and listed as follows:(1) Papp=dQ/dt×1/A×C0 Where Papp was the apparent permeability coefficient (cm/s × 10^−6), dQ/dt (pmol/second) was the rate at which the compound appears in the receiver side, C0 (nM) was the initial concentration of the compound in the donor side, and A (cm^2) represented the surface area of the cell monolayer.

**Q.** For `CC[C@@]1(c2ccccc2)NC(=O)N(C)C1=O` [S-mephenytoin], which “Half-life (t1/2) in human hepatocytes” value [1] is on record?
**A.** 21.7 h

**Q.** Which Papp at 2 h ([2]; read-out: Papp) does the source give for `C[C@H]1O[C@@H](O[C@H]2[C@@H](O)C[C@H](O[C@H]3[C@@H](O)C[C@H](O[C@H]4CC[C@@]5(C)[C@H](CC[C@@H]6[C@@H]5C[C@@H](O)[C@]5(C)[C@@H](C7=CC(=O)OC7)CC[C@]65O)C4)O[C@@H]3C)O[C@@H]2C)C[C@H](O)[C@@H]1O` [digoxin, reference compound] here?
**A.** 18.5 nm/s

**Q.** With `CC(C)NCC(O)COc1cccc2ccccc12` (stereo not shown) [propranolol, reference compound] as the compound, how does the Papp at 2 h ([2]; apical pH: basolateral pH 7.4: 7.4, read-out: Caco-2 permeability, calibration input) read?
**A.** 330 nm/s

**Q.** And the Papp at 2 h ([2]; read-out: Papp)?
**A.** 330 nm/s
